Results published in patent US11578013B2, “Nitrification inhibitors” (Lincoln University, priority 2020, dated 2023).

Key:
[1] = test system: nitrification in the soil; experiment: Soil column study at low rates (Study 3-14): nitrate-N; details: day 60
Experimental: (§1) To determine the effect of treating the soil with 4-Ethynylanisole at low rates, e.g. at 1 kg/ha and 2 kg/ha, soil column studies were conducted. The experiment was conducted in cylindrical PVC containers (Diameter=186 mm, Height=240 mm). The containers were filled with soil to half of the container's height (120 mm), leaving 120 mm headspace. The soil was Templeton sandy loam collected from Lincoln University Research Dairy Farm. It was screened using a 5 mm sieve and air-dried to the required moisture level and packed to bulk density of 1 g/cm3.
(§2) The experiment was conducted under controlled conditions. The temperature of the soil columns were maintained at around 12° C. by using a water bath to control the temperature.
The treatments included Control (Water), Control (animal urine), Control (urine+DMSO), Control (Urine+DCD at 10 kg/ha), Urine+4-Ethynylanisole (at 1 kg/ha) in DMSO, and Urine+4-Ethynylanisole (at 2 kg/ha) in DMSO. Synthetic cow urine was applied at 700 kg N/ha (comprising about 87% urea-N and 13% glycine-N), and 4-Ethynylanisole was applied at 1 or 2 kg/ha equivalent. The treatments were mixed with the soil. Soil moisture was adjusted to 100% field capacity (FC) and maintained between 80 and 100% FC over the duration of the experiment. Soil sampling was conducted on Days 1, 7, 14, 30, and 60. The soil samples were analysed for mineral N.

N. europaea cells = experiment: Oxygen consumption rate of N. europaea whole cells (Oroboros oxygraph); assay type: cell-based, Nitrosomonas europaea; details: 25° C.
Experimental: To begin to understand the mechanism of action of 4-Ethynylanisole the oxygen consumption rate was measured utilising an Oroborus oxygraphy-2k (Oroboros Instruments). Prior to the experiment, N. europaea cells were grown in ATCC 2265 medium for four days. After which time whole cells of N. europaea were washed extensively as previously described and re-suspended in ATCC 2265 wash buffer (no ammonium) to an OD600 of 0.25. Prior to each experiment being initiated by the addition of a metabolizable energy source (ammonium or hydroxyl amine), the oxygen concentration in the assay suspension (2 ml of cells at OD600 of 0.25) was equilibrated for 2-3 min with air until a stable signal was obtained. Under normal experimental conditions this typically yielded an oxygen concentration of approximately 220 μM. After the oxygen concentration had stabilised in the Oroborus oxygraphy-2k reaction cell, rubber stoppers were subsequently inserted to enclose the system. To initiate respiration, ammonium sulphate (12.5 mM) or hydroxyl amine (6.25 mM) were injected directly into washed cell suspension of N. europaea. […] All measurements were made at 25° C. with stirring at 750 rpm and a data recording interval of 1 s^−1.

Bacillus subtilis = experiment: Antimicrobial susceptibility testing (MIC plate); assay type: cell-based; details: at concentrations used in soil to inhibit nitrification
Experimental: (§3) To determine if 4-Ethynylanisole specifically targets the ammonium oxidizing bacterium N. europaea we examined the antimicrobial properties of 4-Ethynylanisole against selected bacterial species. Bacteria were routinely grown in Lysogeny broth (LB) (E. coli and B. subtilis), LB-Tween (M. smegmatis), or Rhizobium defined media (G RDM) (M. loti […]). E. coli, B. subtilis, and M. smegmatis were grown overnight (18 hr) at 37° C. with shaking (200 rpm), whereas M. loti […] was grown for 48 hr statically at 28° C. 96-well microtiter plates used for the antimicrobial susceptibility testing were set up as follows; 200 μl of media (or as appropriate) was added to column […]) and 100 μl of media was added to the remaining wells of a polystyrene 96 well plate. 4-Ethynylanisole was added to column 1 at a concentration of 512 μM (or as required) and serially diluted 2-fold (100 μl transfer) into the neighbouring wells, making sure to discard 100 μl from the last well. Thus, resulting in a serial dilution of each compound. […] Plates were incubated at either 37° C., or 28° C. (with shaking as required) for 18-48 hr before determining the MIC.

Mycobacterium smegmatis = experiment: Antimicrobial susceptibility testing (MIC plate); assay type: cell-based; details: at concentrations used in soil to inhibit nitrification
Experimental: as §3

Escherichia coli = experiment: Antimicrobial susceptibility testing (MIC plate); assay type: cell-based; details: at concentrations used in soil to inhibit nitrification
Experimental: as §3

Mesorhizobium loti R7A = experiment: Antimicrobial susceptibility testing (MIC plate); assay type: cell-based; details: at concentrations used in soil to inhibit nitrification
Experimental: as §3

[2] = test system: nitrification in the soil; experiment: Soil column study with static gas chambers (Study 2-14): nitrate-N and N2O emissions
Experimental: as §1, with “on nitrification rate” for “at low rates, e.g. at 1 kg/ha”, “nitrous oxide emissions,” for “2 kg/ha,”, “studies with static gas chambers” for “studies”
as §2
The treatments included Control (Water), Control (animal urine), Control (urine+DMSO), Control (urine+DCD at 10 kg/ha) and urine+4-Ethynylanisole (10 kg/ha) in DMSO. Synthetic cow urine was applied at 700 kg N/ha (comprising about 87% urea-N and 13% glycine-N), and 4-Ethynylanisole was applied at 10 kg/ha. There were two sets of cores for each treatment, one set were fitted with static gas chambers with removable lids for nitrous oxide sampling, and the other set used for soil sampling. The urine was sprayed to the surface of the soil simulating urine deposition by a grazing animal; DMSO, or DCD or 4-Ethynylanisole mixed with DMSO was also sprayed onto the urine treated soils to simulate the treatment of urine patches. Nitrous oxide gas measurements followed these treatments—as is detailed further below.
For the soil columns that were set up for taking soil samples for analysis of mineral nitrogen, the different treatments were mixed with the soil for soil sampling. Soil moisture was adjusted to 100% field capacity (FC) and maintained between 80 and 100% FC over the duration of the experiment.
Nitrous oxide (N2O) gas sampling was conducted twice a week using the standard procedure (Di et al., 2007). Vials were evacuated prior to sampling. Three gas samples were taken with 20 minute intervals between each sampling. Sampling frequency was reduced to once a week when N2O fluxes decreased in intensity.
Soil sampling was conducted on Day 1, 7, 14, 30, and 60. The soil samples were analysed for mineral nitrogen.

C#Cc1ccc(OC)cc1 [4-Ethynylanisole, 1-ethynyl-4-methoxybenzene]
inhibiting nitrate production compared with DCD ([1]; 1 or 2 kg/ha vs DCD at 10 kg/ha): much more potent than DCD
soil nitrate-N concentration compared with urine control ([1]; 1 or 2 kg/ha): significantly lower nitrate-N concentrations
ammonium-driven oxygen consumption (N. europaea cells; ammonium sulphate 12.5 mM): reduced to zero
hydroxylamine (H3NO)-driven oxygen consumption (N. europaea cells; hydroxyl amine 6.25 mM): not affected
inhibition of bacterial growth (Bacillus subtilis): did not inhibit
inhibition of bacterial growth (Mycobacterium smegmatis): did not inhibit
inhibition of bacterial growth (Escherichia coli): did not inhibit
inhibition of bacterial growth (Mesorhizobium loti R7A): did not inhibit
N2O—N emissions lower than urine alone control ([2]; 10 kg/ha sprayed to soil surface, soil column): 93.3%
soil nitrate-N concentration compared with urine control ([2]; 10 kg/ha, day 60): significantly lower nitrate-N concentrations
nitrous oxide reduction compared with DCD ([2]; both at 10 kg/ha): much greater than that by DCD
inhibiting nitrate production compared with DCD ([2]; both at 10 kg/ha, day 60): much more potent than DCD
